Assay results as given in patent publication US12171760B2, “Use of glucocorticoid receptor modulators to potentiate checkpoint inhibitors” (Corcept Therapeutics Incorporated, priority 2016, dated 2024).

What was measured:
[1] = system: mouse CT26 cancer cells; experiment: CT26 tumor growth in mice, combination of CORT125134 or CORT125281 and anti CTLA4; assay type: in vivo; conditions: SGRM 30 mg/kg orally daily in combination with mouse anti CTLA4 antibody (clone 9D9, 10 mg/kg) i.p. twice a week; C57BL/6 mice, s.c. CT26 tumors; FIG. 3
Description: Suspensions of mouse CT26 cancer cells were injected subcutaneously into the left flank of 6-7 week old immunocompetent female mice (C57BL/6), ½ million cells per mouse. Tumors were allowed to grow until they reached a volume of 50-100 mm^3. Mice were then grouped into three groups, ten (10) per group. Group I was dosed with the anti-CTLA4 vehicle (PBS, 10 ml/kg) i. p. twice a week and the CORT125134 vehicle p.o. (10% DMSO, 0.1% Tween 80 and 89.9% HPMC (0.5%), 10 ml/kg) daily. Group II was dosed with the mouse anti CTLA4 antibody (clone 9D9, 10 mg/kg) i. p. twice a week. Group III was dosed with the mouse anti CTLA4 antibody (clone 9D9, 10 mg/kg) i. p. twice a week and CORT125134 (a SGRM) (30 mg/kg) orally on a daily basis. Group IV was dosed with the mouse anti CTLA4 antibody (clone 9D9, 10 mg/kg) i. p. twice a week and CORT125281 (a SGRM) (30 mg/kg) orally on a daily basis.
(§1) The longest (L) and shortest (S) diameters of the tumors were measured three times a week with electronic calipers and tumor volume was calculated using the formula for an ellipsoid sphere: S^2×L×(0.5). The tumor growth data are shown in FIG. 3, in which the mean tumor volume for each group is plotted against the number of days of tumor growth since initiation of the treatment.

[2] = system: mouse MC38 cancer cells; experiment: MC38 tumor growth in mice, combination of CORT125134 and anti PD-1; assay type: in vivo; conditions: CORT125134 30 mg/kg orally daily in combination with mouse anti PD-1 antibody (clone RPM1-14, 10 mg/kg) i.p. twice a week; C57BL/6 mice, s.c. MC38 tumors; FIG. 1
Description: Suspensions of mouse MC38 cancer cells were injected subcutaneously into the left flank of 5-6 week old immunocompetent female mice (C57BL/6), 1 million cells per mouse. Tumors were allowed to grow until they reach a volume of 100 mm^3. Mice were then grouped into three groups, ten (10) per group. Group I was dosed with the anti-PD-1 vehicle (PBS, 10 ml/kg) i. p. twice a week and the CORT125134 vehicle p.o. (10% DMSO, 0.1% Tween 80 and 89.9% HPMC (0.5%), 10 ml/kg) daily. Group II was dosed with the mouse anti PD-1 antibody (clone RPM1-14, 10 mg/kg) i. p. twice a week. Group III was dosed with the mouse anti PD-1 antibody (clone RPM1-14, 10 mg/kg) i. p. twice a week and CORT125134 (a SGRM) (30 mg/kg) orally on a daily basis. The longest (L) and shortest (S) diameters of the tumors were measured three times a week with electronic calipers and tumor volume was calculated using the formula for an ellipsoid sphere: S^2×L×(0.5). The tumor growth data are shown in FIG. 1, in which the mean tumor volume as compared to the mean pre-dosing tumor volume for each group of mice is plotted against the number of days of tumor growth since initiation of the treatment.

[3] = system: breast cancer; experiment: Treating a breast cancer patient with the combination therapy (tumor load by enhanced magnetic resonance imaging); assay type: in vivo, human; conditions: CORT125134 200 mg once a day for eight weeks with pembrolizumab 3 mg/kg every 2 weeks
Description: A patient suffering from breast cancer is treated with pembrolizumab at a dose of 3 mg/kg every 2 weeks and CORT125134 at a dose of 200 mg once a day for eight weeks. Their tumor load is monitored using enhanced magnetic resonance imaging before, during and after the treatment.

[4] = system: mouse A20 cancer cells; experiment: A20 tumor growth in mice, combination of CORT125281 and anti PD-1; assay type: in vivo; conditions: CORT125281 30 mg/kg orally daily in combination with mouse anti PD-1 antibody (clone RPM1-14, 10 mg/kg) i.p. twice a week; C57BL/6 mice, s.c. A20 tumors; FIG. 2
Description: Suspensions of mouse A20 cancer cells were injected subcutaneously into the left flank of 5-6 week old immunocompetent female mice (C57BL/6), ½ million cells per mouse. Tumors were allowed to grow until they reached a volume of 100 mm^3. Mice were then grouped into three groups, ten (10) per group. Group I was dosed with the anti-PD-1 vehicle (PBS, 10 ml/kg) i. p. twice a week and the CORT125281 vehicle p.o. (10% DMSO, 0.1% Tween 80 and 89.9% HPMC (0.5%), 10 ml/kg) daily. Group II was dosed with the mouse anti PD-1 antibody (clone RPM1-14, 10 mg/kg) i. p. twice a week. Group III was dosed with the mouse anti PD-1 antibody (clone RPM1-14, 10 mg/kg) i. p. twice a week and CORT125281 (a SGRM) (30 mg/kg) orally on a daily basis.
as §1, with “2,” for “3,”, “group of mice” for “group”

SMILES	reducing tumor growth (mean tumor volume) [1]	reducing tumor growth (mean tumor volume as compared to the mean pre-dosing tumor volume) [2]	reduction of the size of the tumor at the end of the treatment period [3]	reducing tumor growth (mean tumor volume) [4]
Cn1cc(S(=O)(=O)N2CCC3=Cc4c(cnn4-c4ccc(F)cc4)C[C@]3(C(=O)c3cc(C(F)(F)F)ccn3)C2)cn1 [CORT125134, (R)-(1-(4-fluorophenyl)-6-((1-methyl-1H-pyrazol-4-yl)sulfonyl)-4,4a,5,6,7,8-hexahydro-1H-pyrazolo[3,4-g]isoquinolin-4a-yl)(4-(trifluoromethyl)pyridin-2-yl)methanone]	superior to both the anti CTLA4 group and the vehicle group in reducing tumor growth	superior to both the anti PD-1 group and the vehicle group in reducing tumor growth	more than 20%	
Cn1ncc(S(=O)(=O)N2CC[C@H]3Cc4c(cnn4-c4ccc(F)cc4)C[C@]3(C(=O)c3cc(C(F)(F)F)ccn3)C2)n1 [CORT125281, ((4aR,8aS)-1-(4-fluorophenyl)-6-((2-methyl-2H-1,2,3-triazol-4-yl)sulfonyl)-4,4a,5,6,7,8,8a,9-octahydro-1H-pyrazolo[3,4-g]isoquinolin-4a-yl)(4-(trifluoromethyl)pyridin-2-yl)methanone]	superior to both the anti CTLA4 group and the vehicle group in reducing tumor growth			superior to both the anti PD-1 group and the vehicle group in reducing tumor growth
